In patent US20240368120A1 (Terns Pharmaceuticals, Inc., priority 2023, published 2024):

Assays:
[1] = target: T1, human GLP-1R receptor (Homo sapiens, UniProt P43220); assay: GLP-1R low expression cell assay (cAMP TR-FRET, CHO-K1_hGLP-1Rlow_clone10 cells); assay type: cell-based; conditions: for EC50: cAMP TR-FRET, 30 min at 25° C.; for Emax: maximum activation relative to control GLP-1 peptide agonist
T1 construct: expressed in transfected cells
Procedure, shortened: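 Readout is cAMP TR-FRET after 30 min compound stimulation at 25 °C of a low-GLP-1R-expressing CHO-K1 clone (1,000 cells/well), with 10-point 3-fold serial dilutions. Percent activation versus a control GLP-1 peptide, from duplicates, was Hill-fitted to give EC50.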

[2] = Rat pharmacokinetics, oral dosing; assay type: in vivo, Sprague-Dawley rats; conditions: male, Sprague-Dawley, oral dosing at 3 mg/kg, plasma; for half-life: read-out: Rat T1/2
Experimental: Intravenous dosing: Compounds were formulated at 1.0 mg/mL in a solution comprising 5% polyethylene glycol 400 and 95% (12% (w/v) sulfobutyl-β-cyclodextrin in water) (v/v). Formulated compounds were sterile filtered through a 0.22 micron filter before dosing. Compounds were administered to male, 7-11-week-old Sprague-Dawley rats by jugular vein cannula infusion over 30 minutes at a dose of 1 mg/kg. Oral dosing: Compounds were formulated at 1.0 mg/mL in a solution comprising 5% polyethylene glycol 400 and 95% (12% (w/v) sulfobutyl-β-cyclodextrin in water) (v/v). Formulated compounds were administered to male, 7-11 week old Sprague-Dawley rats by oral gavage at a dose of 10 mg/kg or 3 mg/kg.
Sample collection: Blood collections of about 0.2 mL per time point were performed from jugular vein or other suitable site of each animal, into pre-chilled commercial EDTA-K2 tubes and placed on wet ice until centrifugation. Blood samples were processed for plasma by centrifugation at approximately 4° C., 3,200 g for 10 min. Plasma was collected and transferred into pre-labeled 96 well plate or polypropylene tubes, quick frozen over dry ice and kept at −60° C. or lower until
Data analysis: Plasma concentration versus time data was plotted in graph and analyzed by non-compartmental approaches using the Phoenix WinNonlin 6.3 software program. Related PK parameters were calculated according to dosing route, e.g., CL, Vdss and C0 for intravenous administration, Cmax, Tmax or % F for extravascular administration, and T1/2, AUC(0-t), AUC(0-inf), MRT(0-t), MRT(0-inf) for all routes.

T1 sequence (P43220 24-463): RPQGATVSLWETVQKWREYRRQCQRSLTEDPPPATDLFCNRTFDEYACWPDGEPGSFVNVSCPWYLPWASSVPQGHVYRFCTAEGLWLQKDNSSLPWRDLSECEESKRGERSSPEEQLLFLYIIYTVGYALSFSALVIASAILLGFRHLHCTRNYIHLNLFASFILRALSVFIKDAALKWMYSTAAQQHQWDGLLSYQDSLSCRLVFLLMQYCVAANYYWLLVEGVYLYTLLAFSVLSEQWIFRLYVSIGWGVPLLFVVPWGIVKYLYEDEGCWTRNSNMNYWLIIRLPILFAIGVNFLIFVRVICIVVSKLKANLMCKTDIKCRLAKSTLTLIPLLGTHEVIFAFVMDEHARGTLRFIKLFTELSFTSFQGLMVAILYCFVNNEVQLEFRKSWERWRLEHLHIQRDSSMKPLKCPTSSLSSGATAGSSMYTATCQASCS

SMILES | EC50 [1] [nM] | Emax [1] [%] | AUC [2] [ng·h/mL] | Cmax [2] [ng/mL] | half-life [2] [h] | bioavailability [2] [%]
COc1cc(C(=O)O)cc2c1nc(CN1CCC(c3cccc4c3O[C@@](C)(c3ccc(Cl)cn3)O4)CC1)n2C [Compound 85, (S)-2-((4-(2-(5-Chloropyridin-2-yl)-2-methylbenzo[d][1,3]dioxol-4-yl)piperidin-1-yl)methyl)-4-methoxy-1-methyl-1H-benzo[d]imidazole-6-carboxylic acid] | < 10 | > 85 | 2500 to 10000 | 1000 to 2000 | 1.5 to 2.5 | 25 to 50
Cn1c(CN2CCC(c3cccc(OCc4ccc(Cl)c5ccoc45)n3)CC2)nc2c(OC(F)F)cc(C(=O)O)cc21 [Compound 237, 2-((4-(6-((4-Chlorobenzofuran-7-yl)methoxy)pyridin-2-yl)piperidin-1-yl)methyl)-4-(difluoromethoxy)-1-methyl-1H-benzo[d]imidazole-6-carboxylic acid] | < 10 | > 85 |  | 2000 to 5000 | 1.5 to 2.5 | 50 to 85
Cn1c(CN2CCC(c3cccc(OCc4ccc(C#N)cc4F)n3)CC2)nc2c(N3CCOCC3)cc(C(=O)O)cc21 [Compound 112, 2-((4-(6-((4-cyano-2-fluorobenzyl)oxy)pyridin-2-yl)piperidin-1-yl)methyl)-1-methyl-4-morpholino-1H-benzo[d]imidazole-6-carboxylic acid] | 100 to 1000 | > 85 |  |  |  | 
[2H]C([2H])(Oc1cccc(C2CCN(C([2H])([2H])c3nc4c(OC(F)F)cc(C(=O)O)cc4n3C)CC2)n1)c1ccc(Cl)cc1F [Compound 321, 2-((4-(6-((4-Chloro-2-fluorophenyl)methoxy-d2)pyridin-2-yl)piperidin-1-yl)methyl-d2)-4-(difluoromethoxy)-1-methyl-1H-benzo[d]imidazole-6-carboxylic acid] | 10 to 100 | > 85 |  |  |  | 
Cn1c(CN2CCC(c3cccc(CCc4ccc(Cl)cc4)n3)CC2)nc2c(OC(F)F)cc(C(=O)O)cc21 [Compound 219, 2-((4-(6-(4-chlorophenethyl)pyridin-2-yl)piperidin-1-yl)methyl)-4-(difluoromethoxy)-1-methyl-1H-benzo[d]imidazole-6-carboxylic acid] | > 1000 | 25 to 50 |  |  |  | 
COc1cc(C#CC(=O)O)cc2c1nc(CN1CCC(c3cccc(OCc4ccc(Cl)cc4F)n3)CC1)n2C[C@@H]1CCO1 [Compound 257, (S)-3-(2-((4-(6-((4-Chloro-2-fluorobenzyl)oxy)pyridin-2-yl)piperidin-1-yl)methyl)-4-methoxy-1-(oxetan-2-ylmethyl)-1H-benzo[d]imidazol-6-yl) propiolic acid] | 10 to 100 | 50 to 85 |  |  |  | 
COc1cc(C(=O)O)cc2c1nc(CN1CCC(c3cccc4c3OC[C@@H](c3ccc(Cl)cc3F)O4)CC1)n2C [Compound 271, (R)-2-((4-(2-(4-Chloro-2-fluorophenyl)-2,3-dihydrobenzo[b][1,4]dioxin-5-yl)piperidin-1-yl)methyl)-4-methoxy-1-methyl-1H-benzo[d]imidazole-6-carboxylic acid] | 100 to 1000 | 50 to 85 |  |  |  | 
Cn1c(CN2CCC(c3cccc(OCc4ccc(Cl)cc4F)n3)CC2)nc2c(O[C@H]3C[C@@H](F)C3)cc(C(=O)O)cc21 [Compound 379, 2-((4-(6-((4-Chloro-2-fluorobenzyl)oxy)pyridin-2-yl)piperidin-1-yl)methyl)-4-((1s,3s)-3-fluorocyclobutoxy)-1-methyl-1H-benzo[d]imidazole-6-carboxylic acid] | 10 to 100 | > 85 |  |  |  | 
COc1cc(C(=O)O)cc2c1nc(CN1CCC(c3cccc4c3OC[C@H](c3ccc(Cl)cc3F)O4)CC1)n2C [Compound 258, (S)-2-((4-(2-(4-Chloro-2-fluorophenyl)-2,3-dihydrobenzo[b][1,4]dioxin-5-yl)piperidin-1-yl)methyl)-4-methoxy-1-methyl-1H-benzo[d]imidazole-6-carboxylic acid] | 100 to 1000 | > 85 |  |  |  | 
COc1cc(C(=O)O)nc2c1nc(CN1CCC(c3cccc(OCc4ccc(Cl)cc4F)n3)CC1)n2C [Compound 324, 2-((4-(6-((4-Chloro-2-fluorobenzyl)oxy)pyridin-2-yl)piperidin-1-yl)methyl)-7-methoxy-3-methyl-3H-imidazo[4,5-b]pyridine-5-carboxylic acid] | 10 to 100 | > 85 |  |  |  | 
Cn1c(CN2CCC(c3cccc(COc4ccc(C#N)cc4F)n3)CC2)nc2c(OC(F)F)cc(C(=O)O)cc21 [Compound 130, 2-((4-(6-((4-Cyano-2-fluorophenoxy)methyl)pyridin-2-yl)piperidin-1-yl)methyl)-4-(difluoromethoxy)-1-methyl-1H-benzo[d]imidazole-6-carboxylic acid] | > 1000 | 25 to 50 |  |  |  | 
Cn1c(CN2CCC(c3cccc(OCc4ccc(OC(F)F)cc4F)n3)CC2)nc2c(OC(F)F)cc(C(=O)O)cc21 [Compound 221, 4-(Difluoromethoxy)-2-((4-(6-((4-(difluoromethoxy)-2-fluorobenzyl)oxy)pyridin-2-yl)piperidin-1-yl)methyl)-1-methyl-1H-benzo[d]imidazole-6-carboxylic acid] | 10 to 100 | > 85 |  |  |  | 
N#Cc1ccc(COc2cccc(C3CCN(Cc4nc5c(O)nc(C(=O)O)cc5n4C[C@@H]4CCO4)CC3)n2)c(F)c1 [Compound 143, (S)-2-((4-(6-((4-Cyano-2-fluorobenzyl)oxy)pyridin-2-yl)piperidin-1-yl)methyl)-4-hydroxy-1-(oxetan-2-ylmethyl)-1H-imidazo[4,5-c]pyridine-6-carboxylic acid] | < 10 | > 85 |  |  |  | 
COCCOc1cc(C(=O)O)cc2c1nc(CN1CCC(c3cccc4c3O[C@@](C)(c3ccc(Cl)cn3)O4)CC1)n2C [Compound 30, (S)-2-((4-(2-(5-Chloropyridin-2-yl)-2-methylbenzo[d][1,3]dioxol-4-yl)piperidin-1-yl)methyl)-4-(2-methoxyethoxy)-1-methyl-1H-benzo[d]imidazole-6-carboxylic acid] | < 10 |  |  |  |  | 
Cn1c(CN2CCC(c3cccc(OCc4ccc(Cl)cc4F)n3)CC2)nc2c(O)c(C(=O)O)ccc21 [Compound 345, 2-((4-(6-((4-Chloro-2-fluorobenzyl)oxy)pyridin-2-yl)piperidin-1-yl)methyl)-4-hydroxy-1-methyl-1H-benzo[d]imidazole-5-carboxylic acid] | > 1000 | 50 to 85 |  |  |  | 
Cn1c(CN2CCC(c3cccc4c3OC[C@H](c3ccc(C#N)cc3F)O4)CC2)nc2c(OC(F)F)cc(C(=O)O)cc21 [Compound 326, (S)-2-((4-(2-(4-Cyano-2-fluorophenyl)-2,3-dihydrobenzo[b][1,4]dioxin-5-yl)piperidin-1-yl)methyl)-4-(difluoromethoxy)-1-methyl-1H-benzo[d]imidazole-6-carboxylic acid] | > 1000 | < 25 |  |  |  | 
[2H]C([2H])([2H])N(c1nc2c(OC(F)F)cc(C(=O)O)cc2n1C)[C@H]1CC[C@H](c2cccc(OCc3ccc(Cl)cc3F)n2)CC1 [Compound 372, 2-(((1r,4r)-4-(6-((4-Chloro-2-fluorobenzyl)oxy)pyridin-2-yl)cyclohexyl)(methyl-d3)amino)-4-(difluoromethoxy)-1-methyl-1H-benzo[d]imidazole-6-carboxylic acid] | < 10 | > 85 |  |  |  | 
COc1cc(C(=O)O)cc2nc(CN3CCC(c4cccc(OCc5ccc(Cl)cc5F)n4)CC3)n(CF)c12 [Compound 192, 2-((4-(6-((4-Chloro-2-fluorobenzyl)oxy)pyridin-2-yl)piperidin-1-yl)methyl)-1-(fluoromethyl)-7-methoxy-1H-benzo[d]imidazole-5-carboxylic acid] | > 1000 | 50 to 85 |  |  |  | 
CCOc1cc(C(=O)O)cc2c1nc(CN1CCC(c3cccc4c3OC[C@@H](c3ccc(Cl)cc3F)O4)CC1)n2C [Compound 269, (R)-2-((4-(2-(4-chloro-2-fluorophenyl)-2,3-dihydrobenzo[b][1,4]dioxin-5-yl)piperidin-1-yl)methyl)-4-ethoxy-1-methyl-1H-benzo[d]imidazole-6-carboxylic acid] | 100 to 1000 | > 85 |  |  |  | 
Cn1c(CN2CCC(c3cccc(OCc4ccc(Cl)cc4F)n3)CC2)nc2c3c(c(C(=O)O)cc21)OCO3 [Compound 275, 7-((4-(6-((4-Chloro-2-fluorobenzyl)oxy)pyridin-2-yl)piperidin-1-yl)methyl)-6-methyl-6H-[1,3]dioxolo[4′,5′:3,4]benzo[1,2-d]imidazole-4-carboxylic acid] | 10 to 100 | > 85 |  |  |  | 
